Source: US11414439B2, “Modulators of cystic fibrosis transmembrane conductance regulator, pharmaceutical compositions, methods of treatment, and process for making the modulator” (Vertex Pharmaceuticals Incorporated, priority 2018, dated 2022)

Each compound was assayed on CFTR (assay: CFTR modulating activity (Table 6; one or more of the disclosed assays, e.g. enteroid membrane potential dye assay)). Conditions: generated using one or more of the assays disclosed herein.
Assay type: cell-based, human
From the text: Human intestinal epithelial enteroid cells may be obtained from the Hubrecht Institute for Developmental Biology and Stem Cell Research, Utrecht, The Netherlands and expanded in T-Flasks as previously described (Dekkers J F, Wiegerinck C L, de Jonge H R, Bronsveld I, Janssens H M, de Winter-de Groot K M, Brandsma A M, de Jong N W M, Bijvelds M J C, Scholte B J, Nieuwenhuis E E S, van den Brink S, Clevers H, van der Ent C K, Middendorp S and M Beekman J M. A functional CFTR assay using primary cystic fibrosis intestinal organoids. Nat Med. 2013 July; 19(7):939-45).
Cells may be recovered in cell recovery solution, collected by centrifugation at 650 rpm for 5 min at 4° C., resuspended in TryPLE and incubated for 5 min at 37° C. Cells can then be collected by centrifugation at 650 rpm for 5 min at 4° C. and resuspended in IEMM containing 10 μM ROCK inhibitor (RI). The cell suspension is then passed through a 40 μm cell strainer and resuspended at 1×10^6 cells/mL in IEMM containing 10 μM RI. Cells may be seeded at 5000 cells/well into multi-well plates and incubated for overnight at 37° C., 95% humidity and 5% CO2 prior to assay.
Enteroid cells may be incubated with test compound in IEMM for 18-24 hours at 37° C., 95% humidity and 5% CO2. Following compound incubations, a membrane potential dye assay can be employed using a FLIPR Tetra to directly measure the potency and efficacy of the test compound on CFTR-mediated chloride transport following acute addition of 10 μM forskolin and 300 nM N-[2,4-bis(1,1-dimethylethyl)-5-hydroxyphenyl]-1,4-dihydro-4-oxoquinoline-3-carboxamide. Briefly, cells are washed 5 times in Bath 1 Buffer. Bath 1 Dye Solution is added and the cells are incubated for 25 min at room temperature. Following dye incubation, cells are washed 3 times in Chloride Free Dye Solution. Chloride transport is initiated by addition of Chloride Free Dye Stimulation Solution and the fluorescence signal is read for 15 min. The CFTR-mediated chloride transport for each condition may be determined from the AUC of the fluorescence response to acute forskolin and 300 nM N-[2,4-bis(1,1-dimethylethyl)-5-hydroxyphenyl]-1,4-dihydro-4-oxoquinoline-3-carboxamide stimulation.
Chloride transport may be expressed as a percentage of the chloride transport following treatment with one or more reference standards or positive controls. Suitable reference standards/controls include one or more of Compound II, Compound III, Compound IV, and Compound A. Compound A is:
Table 6 confirms CFTR modulating activity for representative compounds of the invention generated using one or more of the assays disclosed herein.
Also: key: Active; ND-not detected.

Structure (SMILES) | CFTR Modulating Activity
Cc1nn(C)cc1S(=O)(=O)NC(=O)c1ccc(-n2ccc(OCCC3([Si](C)(C)C)CC3)n2)nc1N1C[C@@H](C)CC1(C)C [Compound (2-2), N-(1,3-dimethylpyrazol-4-yl)sulfonyl-2-[(4S)-2,2,4-trimethylpyrrolidin-1-yl]-6-[3-[2-(1-trimethylsilylcyclopropyl)ethoxy]pyrazol-1-yl]pyridine-3-carboxamide] | Active
Cc1nn(C)cc1S(=O)(=O)NC(=O)c1ccc(-n2ccc([Si](C)(C)CCC(C)(C)C)n2)nc1N1C[C@@H](C)CC1(C)C [Compound (2-1), 6-[3-[3,3-Dimethylbutyl(dimethyl)silyl]pyrazol-1-yl]-N-(1,3-dimethylpyrazol-4-yl)sulfonyl-2-[(4S)-2,2,4-trimethylpyrrolidin-1-yl]pyridine-3-carboxamide] | Active
Cc1nn(C)cc1S(=O)(=O)NC(=O)c1ccc(-n2ccc(OCC(C)(C)C(F)(F)F)n2)nc1N1CC([Si](C)(C)C)CC1(C)C (single isomer, unassigned) [(2-8) Enantiomer 2] | Active
Cc1nn(C)cc1S(=O)(=O)NC(=O)c1ccc(-n2ccc([Si](C)(C)C)n2)nc1N1C[C@@H](C)CC1(C)C [Compound (2-12), N-(1,3-Dimethylpyrazol-4-yl)sulfonyl-2-[(4S)-2,2,4-trimethylpyrrolidin-1-yl]-6-(3-trimethylsilylpyrazol-1-yl)pyridine-3-carboxamide] | Active
Cc1nn(C)cc1S(=O)(=O)NC(=O)c1ccc(-n2ccc(OCC(C)(C)C(F)(F)F)n2)nc1N1C[C@@H](C)CC1(C)[Si](C)(C)C (single isomer, unassigned) [(2-9) Stereoisomer 1] | Active
Cc1nn(C)cc1S(=O)(=O)NC(=O)c1ccc(-n2ccc(OCCC[Si](C)(C)C)n2)nc1N1C[C@@H](C)CC1(C)C [Compound (2-6), N-(1,3-Dimethylpyrazol-4-yl)sulfonyl-2-[(4S)-2,2,4-trimethylpyrrolidin-1-yl]-6-[3-(3-trimethylsilylpropoxy)pyrazol-1-yl]pyridine-3-carboxamide] | Active
Cc1nn(C)cc1S(=O)(=O)NC(=O)c1ccc(-n2ccc(OCC[Si](C)(C)C)n2)nc1N1C[C@@H](C)CC1(C)C [Compound (2-4), N-(1,3-dimethylpyrazol-4-yl)sulfonyl-2-[(4S)-2,2,4-trimethylpyrrolidin-1-yl]-6-[3-(2-trimethylsilylethoxy)pyrazol-1-yl]pyridine-3-carboxamide] | Active
Cc1nn(C)cc1S(=O)(=O)NC(=O)c1ccc(-n2ccc(OC[Si](C)(C)C(C)(C)C)n2)nc1N1C[C@@H](C)CC1(C)C [Compound (2-11), 6-[3-[[tert-Butyl(dimethyl)silyl]methoxy]pyrazol-1-yl]-N-(1,3-dimethylpyrazol-4-yl)sulfonyl-2-[(4S)-2,2,4-trimethylpyrrolidin-1-yl]pyridine-3-carboxamide] | Active
Cc1nn(C)cc1S(=O)(=O)NC(=O)c1ccc(-n2ccc(OC[Si](C)(C)C)n2)nc1N1C[C@@H](C)CC1(C)C [Compound (2-3), N-(1,3-Dimethylpyrazol-4-yl)sulfonyl-2-[(4S)-2,2,4-trimethylpyrrolidin-1-yl]-6-[3-(trimethylsilylmethoxy)pyrazol-1-yl]pyridine-3-carboxamide] | Active
Cc1nn(C)cc1S(=O)(=O)NC(=O)c1ccc([Si](C)(C)C)nc1N1C[C@@H](C)CC1(C)C [Compound (2-5), N-(1,3-dimethylpyrazol-4-yl)sulfonyl-2-[(4S)-2,2,4-trimethylpyrrolidin-1-yl]-6-trimethylsilyl-pyridine-3-carboxamide] | Active
Cc1nn(C)cc1S(=O)(=O)NC(=O)c1ccc(-n2ccc([Si](C)(C)C(C)(C)C)n2)nc1N1C[C@@H](C)CC1(C)C [Compound (2-10), 6-[3-[tert-Butyl(dimethyl)silyl]pyrazol-1-yl]-N-(1,3-dimethylpyrazol-4-yl)sulfonyl-2-[(4S)-2,2,4-trimethylpyrrolidin-1-yl]pyridine-3-carboxamide] | Active
Cc1nn(C)cc1S(=O)(=O)NC(=O)c1ccc(-n2ccc([Si](C)(C)CCC(F)(F)F)n2)nc1N1C[C@@H](C)CC1(C)C [Compound (2-7), N-(1,3-Dimethylpyrazol-4-yl)sulfonyl-6-[3-[dimethyl(3,3,3-trifluoropropyl)silyl]pyrazol-1-yl]-2-[(4S)-2,2,4-trimethylpyrrolidin-1-yl]pyridine-3-carboxamide] | Active
